Measurements: patent US20190021380A1 (priority 2014, published 2019)
Counter-ions that a name gives are not always drawn. Like-named read-outs stand apart in the source and are kept apart here.

Tests used:
T1R1/T1R3 receptor [1] = target: T1, T1R1/T1R3 receptor (Felis catus, UniProt E3UMS2); assay type: cell-based; details: for EC50 +buffer (alone): compound alone in buffer; for Activity: overall call for modulation of T1R1/T1R3: active or N/A (= Not active)
Description: HEK293 cells that stably express T1R3 and inducibly express T1R1 were exposed to transmembrane compounds alone or in combination with one or more amino acids and/or one or more nucleotides to activate the umami receptor. Activation of the T1R1/T1R3 receptor was detected by a change in intracellular calcium levels using a calcium sensitive fluorescent dye. Cells that express T1R3 but not T1R1 were used as a control. A FLIPR® Tetra or a FlexStation® 3 was used for data capture.
In each experiment, serial dilutions of up to 10 mM of the transmembrane compound were added to the T1R1/T1R3-expressing cells.

T1R1/T1R3 receptor [2] = target: T1, T1R1/T1R3 receptor; test: Example 8: agonist screening of transmembrane compounds on T1R1/T1R3 in HEK293 cells; assay type: cell-based, cat; details: for agonist profile assessment: transmembrane compound alone, in words; for T1R1/T1R3 agonist: transmembrane compound tested at 0.01, 0.1 and 1 mM, HEK293 cells expressing T1R1/T1R3, calcium dye and/or luminescent reporter
Method: HEK293 cells that stably express T1R3 and inducibly express T1R1 were exposed to a transmembrane compound. Activation of the T1R1/T1R3 receptor was detected by a change in intracellular calcium levels using a calcium sensitive fluorescent dye and/or a luminescent reporter system. […] A FLIPR® Tetra or a FlexStation® 3 was used for data capture.
Each transmembrane compound was tested at concentrations of 0.01 mM, 0.1 mM, and 1 mM. […] To generate the dose response curves, the transmembrane compound was tested at concentrations of between 0.0001 mM and 1.0 mM in the presence of GMP and Ala.

T1R1/T1R3 receptor [3] = target: T1, T1R1/T1R3 receptor; test: Example 8: PAM screening of transmembrane compounds with GMP and Ala on T1R1/T1R3 in HEK293 cells; assay type: cell-based, cat; details: for PAM profile assessment: in the presence of GMP and Alanine, in words; for T1R1/T1R3 PAM: compound at 0.01, 0.1, 1 mM in combination with GMP+Ala mixtures (T1-T4), PAM if response to the combination is greater than the sum of the responses to compound alone and to GMP+Ala alone
Description: HEK293 cells that stably express T1R3 and inducibly express T1R1 were exposed to transmembrane compound alone or in combination with Ala and GMP to activate the umami receptor. Activation of the T1R1/T1R3 receptor was detected by a change in intracellular calcium levels using a calcium sensitive fluorescent dye and/or a luminescent reporter system. […] A FLIPR® Tetra or a FlexStation® 3 was used for data capture.
Dose response curves were generated for each transmembrane compound at concentrations of 0 (buffer only), 0.01, 0.1 and 1 mM, wherein each of the three concentrations of transmembrane compound was tested in combination with 0.03 mM GMP+100 mM Ala (T1); 0.6 mM GMP+10 mM Ala (T2); 0.1 mM GMP+60 mM Ala (T3) and 0.3 mM GMP+60 mM Ala (T4). The T4 mixture was also tested in a 2-fold dilution series (the T4(X) Concentration). In these experiments, the first test concentration was 2× (2 times) the T4 concentration. The subsequent test concentrations were 2-fold dilutions from that (1×, 0.5× etc.). This dilution series was tested with or without the addition of the test compound at a constant 0.3 mM concentration.
Activation of the umami receptor was also determined in the presence of 1 mM GMP+100 mM Ala to generate a “maximum” umami receptor activation level.

cat T1R1/T1R3 receptor = cat T1R1/T1R3 receptor (Felis catus, UniProt E3UMS2); test: cell-based
Description: HEK293 cells that stably express T1R3 and inducibly express T1R1 were exposed to nucleotide derivatives alone or in combination with one or more amino acids and/or one or more nucleotides to activate the umami receptor. Activation of the T1R1/T1R3 receptor was detected by a change in intracellular calcium levels using a calcium sensitive fluorescent dye and/or a luminescent reporter system. Cells that express T1R3 but not T1R1 were used as a control. A FLIPR® Tetra or a FlexStation® 3 was used for data capture.

[4] = threshold in the presence of 0.2 mM IMP, CNBD = Could not be determined
[5] = in the presence of 0.2 mM IMP, CNBD = Could not be determined

CC(C)CC(NC(=O)c1ccccc1)C(N)=O (racemic)
Thres +IMP (0.2 mM) (T1R1/T1R3 receptor [1]; [4]): 0.1 mM

O=C1CC(=O)N(Cc2ccccc2)C(=O)N1Cc1ccccc1 [1,3-dibenzylpyrimidine-2,4,6(1H,3H,5H)-trione]
Thres +IMP (0.2 mM) (T1R1/T1R3 receptor [1]; [4]): 0.1 mM | agonist profile assessment (T1R1/T1R3 receptor [2]): agonist activity

O=C(CN1C(=O)C(=O)N(Cc2ccccc2)C1=O)c1ccc(Cl)s1 [1-benzyl-3-(2-(5-chlorothiophen-2-yl)-2-oxoethyl)imidazolidine-2,4,5-trione]
PAM profile assessment (T1R1/T1R3 receptor [3]): PAM activity

O=C(O)C1CCCCC1C(=O)Nc1cc(Cl)cc(Cl)c1 (centres unmarked) [2-((3,5-dichlorophenyl)carbamoyl)cyclohexanecarboxylic acid]
Thres +IMP (0.2 mM) (T1R1/T1R3 receptor [1]; [4]): 0.03 mM

Nc1ccccc1C(=O)NCCc1ccccc1 [2-amino-N-phenethylbenzamide]
Thres +IMP (0.2 mM) (T1R1/T1R3 receptor [1]; [4]): 0.01 mM

CC(=O)Nc1ccc(C(=O)Nc2cc(-c3ccccc3)nn2CCO)cc1 [4-acetamido-N-(1-(2-hydroxyethyl)-3-phenyl-1H-pyrazol-5-yl)benzamide]
EC50 +Alanine (20 mM) (T1R1/T1R3 receptor [1]): CNBD | Thres +Alanine (20 mM) (T1R1/T1R3 receptor [1]): CNBD | EC50 +buffer (alone) (T1R1/T1R3 receptor [1]; CNBD = Could not be determined): CNBD | Thres +IMP (0.2 mM) (T1R1/T1R3 receptor [1]; [4]): CNBD

CCCCc1nn(CC(=O)N2CCCC2)c(=O)n1Cc1ccccc1 [4-benzyl-3-butyl-1-(2-oxo-2-(pyrrolidin-1-yl)ethyl)-1H-1,2,4-triazol-5(4H)-one]
Thres +IMP (0.2 mM) (T1R1/T1R3 receptor [1]; [4]): 0.1 mM

O=P(O)(O)OP(=O)(O)OP(=O)(O)OC[C@H]1O[C@@H](n2cnc3c(Cl)ncnc32)[C@H](O)[C@@H]1O [6-Chloropurine riboside-5′-O-triphosphate]
Thres +Alanine (20 mM) (T1R1/T1R3 receptor [1]): 0.01 mM | Activity (T1R1/T1R3 receptor [1]): active | Thres +IMP (0.2 mM) (T1R1/T1R3 receptor [1]; [4]): 0.003 mM

Nc1nc2c(ncn2[C@@H]2O[C@H](COP(=O)(O)OP(=O)(O)O)[C@@H](O)[C@H]2O)c(=S)[nH]1 [6-Thioguanosine-5′-O-diphosphate]
EC50 +buffer (alone) (T1R1/T1R3 receptor [1]; CNBD = Could not be determined): CNBD | EC50 +IMP (0.2 mM) (T1R1/T1R3 receptor [1]; [5]): CNBD | Max resp ΔF/F +IMP (0.2 mM) (T1R1/T1R3 receptor [1]; [5]): 0.0720 ΔF/F | Thres +IMP (0.2 mM) (T1R1/T1R3 receptor [1]; [4]): CNBD

COC(=O)[C@H](CC(C)C)NCc1ccccc1.Cl [Benzyl-L-leucine methyl ester hydrochloride]
PAM profile assessment (T1R1/T1R3 receptor [3]): PAM activity | agonist profile assessment (T1R1/T1R3 receptor [2]): agonist

O=C[C@H](O)[C@@H](O)[C@H](O)[C@H](O)CO [D-Glucose, reference compound]
EC50 +buffer (alone) (T1R1/T1R3 receptor [1]; CNBD = Could not be determined): CNBD

O=C(CN1C(=O)C(=O)N(Cc2ccccc2)C1=O)c1ccccc1 [Formula 1, 1-benzyl-3-(2-oxo-2-phenylethyl)imidazolidine-2,4,5-trione]
T1R1/T1R3 PAM (T1R1/T1R3 receptor [3]): No | T1R1/T1R3 agonist (T1R1/T1R3 receptor [2]): No

O=C(CN1C(=O)C(=O)N(Cc2ccccc2)C1=O)c1ccc2c(c1)CCC2 [Formula 2, 1-benzyl-3-(2-(2,3-dihydro-1H-inden-5-yl)-2-oxoethyl)imidazolidine-2,4,5-trione]
T1R1/T1R3 PAM (T1R1/T1R3 receptor [3]): No | T1R1/T1R3 agonist (T1R1/T1R3 receptor [2]): No

O=C(CN1C(=O)C(=O)N(Cc2ccccc2)C1=O)c1ccc(Br)cc1 [Formula 3, 1-benzyl-3-(2-(4-bromophenyl)-2-oxoethyl)imidazolidine-2,4,5-trione]
T1R1/T1R3 PAM (T1R1/T1R3 receptor [3]): No | T1R1/T1R3 agonist (T1R1/T1R3 receptor [2]): No

O=C(CN1C(=O)C(=O)N(Cc2ccccc2)C1=O)c1ccc2c(c1)OCCO2 [Formula 4, 1-benzyl-3-(2-(2,3-dihydrobenzo[b][1,4]dioxin-6-yl)-2-oxoethyl)imidazolidine-2,4,5-trione]
T1R1/T1R3 PAM (T1R1/T1R3 receptor [3]): No | T1R1/T1R3 agonist (T1R1/T1R3 receptor [2]): No

COc1ccc(C(=O)CN2C(=O)C(=O)N(Cc3ccccc3)C2=O)c(OC)c1 [Formula 5, 1-benzyl-3-(2-(2,4-dimethoxyphenyl)-2-oxoethyl)imidazolidine-2,4,5-trione]
T1R1/T1R3 PAM (T1R1/T1R3 receptor [3]): No | T1R1/T1R3 agonist (T1R1/T1R3 receptor [2]): No

C[C@H](N)C(=O)O [L-Alanine, reference compound]
Thres +IMP (0.2 mM) (T1R1/T1R3 receptor [1]; [4]): 3.0 mM

N[C@@H](CS)C(=O)O [L-Cysteine, cysteine]
Max resp ΔF/F +IMP (0.2 mM) (T1R1/T1R3 receptor [1]; [5]): 0.5800 ΔF/F | Thres +IMP (0.2 mM) (T1R1/T1R3 receptor [1]; [4]): 10.0 mM

N[C@@H](Cc1c[nH]cn1)C(=O)O [L-Histidine, L-histidine]
Thres +IMP (0.2 mM) (T1R1/T1R3 receptor [1]; [4]): 10.0 mM

N[C@@H](Cc1ccccc1)C(=O)O [L-Phenylalanine, reference compound]
Max resp ΔF/F +IMP (0.2 mM) (T1R1/T1R3 receptor [1]; [5]): 0.5900 ΔF/F | Thres +IMP (0.2 mM) (T1R1/T1R3 receptor [1]; [4]): 0.1 mM

O=C(O)[C@@H]1CCCN1 [L-Proline, proline]
EC50 +IMP (0.2 mM) (T1R1/T1R3 receptor [1]): CNBD | Max resp % of Ala +IMP (0.2 mM) (T1R1/T1R3 receptor [1]): CNBD | Max resp ΔF/F +IMP (0.2 mM) (T1R1/T1R3 receptor [1]): CNBD | Thres +IMP (0.2 mM) (T1R1/T1R3 receptor [1]): CNBD

N[C@@H](CO)C(=O)O [L-Serine, serine]
Thres +IMP (0.2 mM) (T1R1/T1R3 receptor [1]; [4]): 3.0 mM

N[C@@H](Cc1c[nH]c2ccccc12)C(=O)O [L-Tryptophan, tryptophan]
Thres +IMP (0.2 mM) (T1R1/T1R3 receptor [1]; [4]): 0.1 mM

N[C@@H](Cc1ccc(O)cc1)C(=O)O [L-Tyrosine, tyrosine]
Thres +IMP (0.2 mM) (T1R1/T1R3 receptor [1]; [4]): 3.0 mM

N[C@@H](CCC(=O)O)C(=O)[O-].[Na+] [MSG (Glutamic acid sodium salt), monosodium glutamate]
EC50 +IMP (0.2 mM) (T1R1/T1R3 receptor [1]; [5]): CNBD | Max resp ΔF/F +IMP (0.2 mM) (T1R1/T1R3 receptor [1]; [5]): CNBD | Max resp % of Ala +IMP (0.2 mM) (T1R1/T1R3 receptor [1]; in the presence of 0.2 mM IMP, relative to Ala, CNBD = Could not be determined): CNBD | Thres +IMP (0.2 mM) (T1R1/T1R3 receptor [1]; [4]): CNBD

O=C(NCCCCNC(=O)c1cccnc1)c1cccnc1 [N,N′-(butane-1,4-diyl)dinicotinamide]
EC50 +Alanine (20 mM) (T1R1/T1R3 receptor [1]): CNBD | EC50 +buffer (alone) (T1R1/T1R3 receptor [1]; CNBD = Could not be determined): CNBD | Thres +IMP (0.2 mM) (T1R1/T1R3 receptor [1]; [4]): 0.1 mM

O=C(NCCc1c[nH]c2ccccc12)c1cccnc1 [N-(2-(1H-indol-3-yl)ethyl)nicotinamide, N-(2-(1H-Indol-3-yl)ethyl)nicotinamide]
Thres +IMP (0.2 mM) (T1R1/T1R3 receptor [1]; [4]): 0.003 mM

O=C(NCCc1ccccc1)c1ccccc1 [N-phenethylbenzamide]
Max resp ΔF/F +IMP (0.2 mM) (T1R1/T1R3 receptor [1]; [5]): 0.9800 ΔF/F | Thres +IMP (0.2 mM) (T1R1/T1R3 receptor [1]; [4]): 0.01 mM

O=C(NCCc1ccccc1)c1ccc2c(c1)OCO2 [N-phenethylbenzo[d][1,3]dioxole-5-carboxamide]
EC50 +Alanine (20 mM) (T1R1/T1R3 receptor [1]): CNBD | Thres +IMP (0.2 mM) (T1R1/T1R3 receptor [1]; [4]): 0.01 mM

O=C(NCCc1ccccc1)c1cccnc1 [N-phenethylnicotinamide]
Thres +IMP (0.2 mM) (T1R1/T1R3 receptor [1]; [4]): 0.03 mM

C=C[C@H]1C[N@@]2CC[C@H]1C[C@H]2[C@H](O)c1ccnc2ccc(OC)cc12 [Quinine HCL, reference compound]
EC50 +buffer (alone) (T1R1/T1R3 receptor [1]; CNBD = Could not be determined): CNBD

CCOC(=O)NC(=O)C(c1ccccc1)c1ccccc1 [Ro 01-6128, reference compound]
Thres +Alanine (20 mM) (T1R1/T1R3 receptor [1]): 0.3 mM | Activity (T1R1/T1R3 receptor [1]): active | Thres +IMP (0.2 mM) (T1R1/T1R3 receptor [1]; [4]): 0.01 mM

O=c1[nH]c(=O)c2ncn([C@@H]3O[C@H](COP(=O)(O)O)[C@@H](O)[C@H]3O)c2[nH]1 [xanthosine monophosphate, reference compound]
Thres (cat T1R1/T1R3 receptor): 0.025 mM
